{
  "source": "patent US20260216135A1",
  "about": "“ANTIVIRAL PHARMACEUTICAL COMPOSITION AND PREPARATION METHOD THEREFOR” (priority 2023, published 2026)",
  "key": {"SARS-CoV-2 Delta strain": {"test_system": "SARS-CoV-2 Delta strain", "details": "for Viral load, brain tissue, Day 4 / Viral load, lung tissue, Day 2: intragastric BID, mean ± SD"}, "[1]": {"test_system": "47 safety-related targets", "details": "read-out: EC50 for 47 safety-related targets (inhibition or activation)"}, "[2]": {"test_system": "SARS-CoV-2 Omicron strain (B.1.1.529)", "assay": "microbe, parasite or virus in culture", "details": "Severe acute respiratory syndrome coronavirus 2, Vero C1008, read-out: IC50 (μM), Vero E6 Omicron strain (B.1.1.529)"}, "[3]": {"details": "200 mg/kg + ritonavir 50 mg/kg, listed as compound of formula (I)"}},
  "note": "pEC50: −log10 of the molar value. Like-named read-outs stand apart in the source and are kept apart here.",
  "data": [
    {"molecule": "CC(C)(C)[C@H](NC(=O)C(F)(F)F)C(=O)N1CC2(C[C@H]1C(=O)N[C@H](C#N)C[C@@H]1CCNC1=O)SCCS2", "note": "[Compound of formula (I)]", "values": [
      {"measurement": "Viral load, brain tissue, Day 4", "setting": "SARS-CoV-2 Delta strain; 50 mg/kg + ritonavir 50 mg/kg", "result": "2.88 ± 1.26", "unit": "log10 copies/mg"},
      {"measurement": "Viral load, lung tissue, Day 2", "setting": "SARS-CoV-2 Delta strain; 50 mg/kg + ritonavir 50 mg/kg", "result": "7.66 ± 0.27", "unit": "log10 copies/g"},
      {"measurement": "Viral load, lung tissue, Day 2", "setting": "SARS-CoV-2 Delta strain; 50 mg/kg + ritonavir 50 mg/kg, listed as compound of formula (I)", "result": 7.66, "unit": "log10 copies/g"},
      {"measurement": "Viral load, brain tissue, Day 4", "setting": "SARS-CoV-2 Delta strain; 200 mg/kg + ritonavir 50 mg/kg", "result": "0.99 ± 0.42", "unit": "log10 copies/mg"},
      {"measurement": "Viral load, lung tissue, Day 2", "setting": "SARS-CoV-2 Delta strain; 200 mg/kg + ritonavir 50 mg/kg", "result": "6.79 ± 0.30", "unit": "log10 copies/g"},
      {"measurement": "Viral load, brain tissue, Day 4", "setting": "SARS-CoV-2 Delta strain; [3]", "result": "comparable to that of the uninfected normal group"},
      {"measurement": "Viral load, lung tissue, Day 2", "setting": "SARS-CoV-2 Delta strain; [3]", "result": "6.79±0.30", "unit": "log10 copies/g"},
      {"measurement": "Histopathological analysis of the lungs", "setting": "SARS-CoV-2 Delta strain; 200 mg/kg, compared with model group", "result": "significantly ameliorated lung damage"},
      {"measurement": "Body weight of mice", "setting": "SARS-CoV-2 Delta strain; mouse, in vivo", "result": "not significantly reduced"},
      {"measurement": "Reduction of viral copy number in the lungs compared with the model group", "setting": "SARS-CoV-2 Delta strain; mouse, in vivo", "result": 2.4, "unit": "log 10 copies/g"},
      {"measurement": "Reduction of viral titer in the lungs compared to the model group", "setting": "SARS-CoV-2 Delta strain; mouse, in vivo", "result": "more than 3 log 10 PFU/g"},
      {"measurement": "Virus titer in the brains (plaque assay)", "setting": "SARS-CoV-2 Delta strain; mouse, in vivo", "result": "no virus titer was detected"},
      {"measurement": "pEC50", "setting": "[1]", "result": "< 4.00"},
      {"measurement": "IC50", "setting": "[2]", "result": 0.12, "unit": "µM"}
    ]}
  ]
}
